Test results published in patent EP4656179A1, “COMPOSITION CONTAINING STREPTOCOCCUS SP. STRAIN FOR PREVENTION, ALLEVIATION, OR TREATMENT OF SKIN DISEASES” (Cosmax, Inc., priority 2023, dated 2024).

Key:
Type in all cases: cell-based, human
Conditions in all cases: HaCaT cells, IFN-γ 10 ng/mL; 1, 10, and 100 ppm; 24 hours; GAPDH as standard
filaggrin (FLG) = assay: Marker gene expression in IFN-γ atopic dermatitis cell model (HaCaT), real-time PCR: filaggrin
Method: (§1) To verify the effect of the Cyclo(Gly-Pro) of alleviating atopic dermatitis, an in vitro efficacy evaluation was conducted.
(§2) First, human keratinocytes, HaCaT cells, were purchased from the American Type Culture Collection (ATCC; Manassas, VA, USA) and cultured in DMEM (HyClone, Logan, UT, USA) supplemented with 10 % FBS (HyClone) and 1 % antibiotic-antimycotic solution (Welgene, Daegu, Korea). The cells were maintained at 37 °C in a 5 % CO2 incubator. After isolating the cells using trypsinization, 4 x 10^5 cells were added to each well of a 6-well plate. After 1 day of cell attachment, the culture was replaced with a serum-free medium and treated with IFN-γ (Sigma Aldrich, St. St. Louis, MO, USA) at a concentration of 10 ng/mL to induce an environment similar to atopic dermatitis. As a positive control group, 1 µM dexamethasone (Sigma Aldrich) was used. As experimental groups, the cells were treated with Cyclo(Gly-Pro) (Biosynth Ltd, Berkshire, UK) at concentrations of 1, 10, and 100 ppm. […]
(§3) The cDNA amplification was performed by 40 cycles of amplification, wherein each cycle has the following conditions: 50 °C for 2 minutes, 95 °C for 10 minutes, 40 cycles of 95°C for 10 seconds, and 60°C for 1 minute. GAPDH was used as an ISTD material, and the mRNA expression levels were expressed as relative values compared to the negative control group. […]

IL-13 = assay: Marker gene expression in IFN-γ atopic dermatitis cell model (HaCaT), real-time PCR: IL-13
Method: as §1, §2, §3

IL-31 = assay: Marker gene expression in IFN-γ atopic dermatitis cell model (HaCaT), real-time PCR: IL-31
Method: as §1, §2, §3

IL-22 = assay: Marker gene expression in IFN-γ atopic dermatitis cell model (HaCaT), real-time PCR: IL-22
Method: as §1, §2, §3

CCL17 = assay: Marker gene expression in IFN-γ atopic dermatitis cell model (HaCaT), real-time PCR: CCL17
Method: as §1, §2, §3

CCL22 = assay: Marker gene expression in IFN-γ atopic dermatitis cell model (HaCaT), real-time PCR: CCL22
Method: as §1, §2, §3

sIL-2R = assay: Marker gene expression in IFN-γ atopic dermatitis cell model (HaCaT), real-time PCR: sIL-2R
Method: as §1, §2, §3

Structure (SMILES): O=C1NCC(=O)N2CCCC12 (stereo not shown) [Cyclo(Gly-Pro), hexahydropyrrolo[1,2-a]pyrazine-1,4-dione]
- relative expression levels of filaggrin (FLG) (filaggrin (FLG)): increased
- relative expression levels of IL-13 (IL-13): decreased
- relative expression levels of IL-31 (IL-31): decreased
- relative expression levels of IL-22 (IL-22): decreased
- relative expression levels of CCL17 (CCL17): decreased
- relative expression levels of CCL22 (CCL22): decreased
- relative expression levels of sIL-2R (sIL-2R): decreased
